Literature values in patent US20240042038A1, “FORMULATIONS OF CABAZITAXEL” (Zhuhai Beihai Biotech Co., Ltd., priority 2020, published 2024).

Which solubility in alcohol does the source give for `CO[C@H]1C(=O)[C@]2(C)[C@@H](OC)C[C@H]3OC[C@@]3(OC(C)=O)[C@H]2[C@H](OC(=O)c2ccccc2)[C@]2(O)C[C@H](OC(=O)[C@H](O)[C@@H](NC(=O)OC(C)(C)C)c3ccccc3)C(C)=C1C2(C)C` [Cabazitaxel, cabazitaxel] here?
Its solubility in alcohol is “soluble”.

And the solubility in water?
The solubility in water was “practically insoluble”.
